Laboratory results published in article PMC8445441, “Elucidating the mechanism by which synthetic helper peptides sensitize Pseudomonas aeruginosa to multiple antibiotics” (PLoS Pathogens, 2021).
“And” between values parts separate entries of the source, which are not always exact repeats. Equal values may be shown once. Read-outs that look alike come from different tables or passages of the source.

Columns and labels:
P. aeruginosa HM-214 = details: strain HM-214; antibiotic + D-11 (MICb/MICbc 128/4)
Procedure, shortened: (§1)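 After 18 h at 37 °C, the lowest concentration showing no visible growth was read as the MIC. Drugs were serially diluted two-fold in MHB and combined with an equal volume of inoculum (~1 × 10^6 CFU/mL), following CLSI broth microdilution; run in triplicate.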

P. aeruginosa AUMC-Pa-1 = details: strain AUMC-Pa-1; antibiotic + D-11 (MICb/MICbc 128/4)
Procedure, shortened: as §1

P. aeruginosa AUMC-Pa-2 = details: strain AUMC-Pa-2; antibiotic + D-11 (MICb/MICbc 64/4)
Procedure, shortened: as §1

P. aeruginosa AUMC-Pa-3 = assay: microbe, parasite or virus in culture; details: strain AUMC-Pa-3
Procedure, shortened: as §1

P. aeruginosa AUMC-Pa-6 = assay: microbe, parasite or virus in culture; details: strain AUMC-Pa-6
Procedure, shortened: as §1

P. aeruginosa PAO1 = assay: microbe, parasite or virus in culture; details: for MIC: Pseudomonas aeruginosa
Procedure, shortened: as §1

P. aeruginosa AUMC-Pa-5 = assay: microbe, parasite or virus in culture; details: strain AUMC-Pa-5
Procedure, shortened: as §1

P. aeruginosa AUMC-Pa-4 = assay: microbe, parasite or virus in culture; details: strain AUMC-Pa-4
Procedure, shortened: as §1

[1] = test system: clinical P. aeruginosa isolates; assay: microbe, parasite or virus in culture; details: Pseudomonas aeruginosa, 18 h, antibiotic alone
Procedure, shortened: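 MIC is the lowest drug concentration showing no visible growth after 18 h at 37 °C. Two-fold dilutions in MHB were combined with an equal volume of bacterial suspension (about 1 × 10^6 CFU/mL), following CLSI broth microdilution, in triplicate.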

P. aeruginosa NR-31040 = assay: microbe, parasite or virus in culture; set-up: MICa: MIC of the antibiotic / MICac: MIC of the antibiotic in the combination: unit not given beside the values; details: strain NR-31040
Procedure, shortened: as §1

P. aeruginosa NR-31041 = assay: microbe, parasite or virus in culture; set-up: MICa: MIC of the antibiotic / MICac: MIC of the antibiotic in the combination: unit not given beside the values; details: strain NR-31041
Procedure, shortened: as §1

P. aeruginosa ATCC27853 = assay: microbe, parasite or virus in culture; set-up: MICa: MIC of the antibiotic / MICac: MIC of the antibiotic in the combination: unit not given beside the values; details: strain ATCC27853
Procedure, shortened: as §1

P. aeruginosa PA14 = assay: microbe, parasite or virus in culture; set-up: MICa: MIC of the antibiotic / MICac: MIC of the antibiotic in the combination: unit not given beside the values; details: strain PA14
Procedure, shortened: as §1

P. aeruginosa PAK = assay: microbe, parasite or virus in culture; set-up: MICa: MIC of the antibiotic / MICac: MIC of the antibiotic in the combination: unit not given beside the values; details: strain PAK
Procedure, shortened: as §1

[2] = antibiotic + D-11 (MICb/MICbc 128/4)
[3] = antibiotic alone, unit not given
[4] = with D-11 at MICbc 4, unit not given
[5] = antibiotic + D-11 (MICb/MICbc 64/4)

CC[C@H]1OC(=O)[C@H](C)[C@@H](O[C@H]2C[C@@](C)(OC)[C@@H](O)[C@H](C)O2)[C@H](C)[C@@H](O[C@@H]2O[C@H](C)C[C@H](N(C)C)[C@H]2O)[C@](C)(O)C[C@@H](C)CN(C)[C@H](C)[C@@H](O)[C@]1(C)O [Azithromycin] was tested. Which FICI (P. aeruginosa HM-214) did it give?
The FICI was 0.281.

What about the FICI (P. aeruginosa AUMC-Pa-1) of the same compound?
The FICI was 0.094.

What about the FICI (P. aeruginosa AUMC-Pa-2) of the same compound?
Its FICI is 0.313.

And the FICI (P. aeruginosa AUMC-Pa-3; [2])?
Its FICI is 0.094.

And the “MICa: MIC of the antibiotic” value (P. aeruginosa AUMC-Pa-3; [3])?
Its value is 128.

What about the “MICac: MIC of the antibiotic in the combination” value (“MICac: MIC of the antibiotic” for short) (P. aeruginosa AUMC-Pa-3; [4]) of the same compound?
The value was 8.

What about the FICI (P. aeruginosa AUMC-Pa-6; [5]) of the same compound?
Its FICI is 0.313.

And the “MICa: MIC of the antibiotic” value (P. aeruginosa AUMC-Pa-6; [3])?
The value was 128.

And the “MICac: MIC of the antibiotic” value (P. aeruginosa AUMC-Pa-6; [4])?
The value was 32.

What about the MIC (P. aeruginosa PAO1; PAO1, read-out: MIC for azithromycin, azithromycin alone, PAO1) of the same compound?
The MIC was 128 µM.

What about the MIC (P. aeruginosa PAO1; PAO1, read-out: MIC of AZM, initial bacterial density 10^3 CFU/mL) of the same compound?
Its MIC is 64 µM.

And the MIC (P. aeruginosa PAO1; PAO1, read-out: MIC of AZM, initial bacterial density 10^4 CFU/mL)?
Its MIC is 64 µM.

What about the MIC (P. aeruginosa PAO1; PAO1, read-out: MIC of AZM, initial bacterial density 10^5 CFU/mL) of the same compound?
Its MIC is 128 µM.

And the MIC (P. aeruginosa PAO1; PAO1, read-out: MIC of AZM, initial bacterial density 10^6 CFU/mL)?
The MIC was 128 µM.

What about the “MICa: the MIC of antibiotics” value (P. aeruginosa PAO1; S1 Table, macrolide alone, PAO1) of the same compound?
Its value is 128 µM.

What about the “MICa: the MIC of azithromycin” value (P. aeruginosa PAO1; azithromycin alone, PAO1, broth microdilution in MHB, 18 h, 37 °C, triplicate) of the same compound?
Its value is 128/128 μM and 128 μM.

And the FICI (P. aeruginosa AUMC-Pa-5; [5])?
The FICI was 0.313.

And the “MICa: MIC of the antibiotic” value (P. aeruginosa AUMC-Pa-5; [3])?
Its value is 128.

What about the “MICac: MIC of the antibiotic” value (P. aeruginosa AUMC-Pa-5; [4]) of the same compound?
Its value is 32.

What about the FICI (P. aeruginosa AUMC-Pa-4; [2]) of the same compound?
The FICI was 0.281.

And the “MICa: MIC of the antibiotic” value (P. aeruginosa AUMC-Pa-4; [3])?
The value was 128.

What about the “MICac: MIC of the antibiotic” value (P. aeruginosa AUMC-Pa-4; [4]) of the same compound?
Its value is 32.

And the MIC ([1]; read-out: Antibiotic sensibility (MIC) of clinical P. aeruginosa isolate AUMC-Pa-1, strain AUMC-Pa-1)?
Its MIC is 128 µM.

And the MIC ([1]; read-out: Antibiotic sensibility (MIC) of clinical P. aeruginosa isolate AUMC-Pa-2, strain AUMC-Pa-2)?
Its MIC is 128 µM.

And the MIC ([1]; read-out: Antibiotic sensibility (MIC) of clinical P. aeruginosa isolate AUMC-Pa-3, strain AUMC-Pa-3)?
Its MIC is 128 µM.

What about the MIC ([1]; read-out: Antibiotic sensibility (MIC) of clinical P. aeruginosa isolate AUMC-Pa-4, strain AUMC-Pa-4) of the same compound?
The MIC was 128 µM.

What about the MIC ([1]; read-out: Antibiotic sensibility (MIC) of clinical P. aeruginosa isolate AUMC-Pa-5, strain AUMC-Pa-5) of the same compound?
Its MIC is 128 µM.

What about the MIC ([1]; read-out: Antibiotic sensibility (MIC) of clinical P. aeruginosa isolate AUMC-Pa-6, strain AUMC-Pa-6) of the same compound?
The MIC was 128 µM.

And the MIC ([1]; read-out: Antibiotic sensibility (MIC) of clinical P. aeruginosa isolate HM-214, strain HM-214)?
Its MIC is 128 µM.

What about the MIC ([1]; read-out: Antibiotic sensibility (MIC) of clinical P. aeruginosa isolate NR-31040, strain NR-31040) of the same compound?
The MIC was 128 µM.

What about the MIC ([1]; read-out: Antibiotic sensibility (MIC) of clinical P. aeruginosa isolate NR-31041, strain NR-31041) of the same compound?
Its MIC is 128 µM.

And the FICI (P. aeruginosa NR-31040; [2])?
The FICI was 0.281.

What about the “MICa: MIC of the antibiotic” value (P. aeruginosa NR-31040; [3]) of the same compound?
Its value is 128.

And the “MICac: MIC of the antibiotic” value (P. aeruginosa NR-31040; [4])?
Its value is 32.

And the FICI (P. aeruginosa NR-31041; [5])?
The FICI was 0.188.

And the “MICa: MIC of the antibiotic” value (P. aeruginosa NR-31041; [3])?
Its value is 128.

And the “MICac: MIC of the antibiotic” value (P. aeruginosa NR-31041; [4])?
Its value is 16.

And the FICI (P. aeruginosa ATCC27853; antibiotic + D-11 (MICb/MICbc 32/4))?
Its FICI is 0.156.

What about the “MICa: MIC of the antibiotic” value (P. aeruginosa ATCC27853; [3]) of the same compound?
Its value is 128.

And the “MICac: MIC of the antibiotic” value (P. aeruginosa ATCC27853; [4])?
Its value is 4.

What about the FICI (P. aeruginosa PA14; [2]) of the same compound?
The FICI was 0.281.

What about the “MICa: MIC of the antibiotic” value (P. aeruginosa PA14; [3]) of the same compound?
The value was 128.

What about the “MICac: MIC of the antibiotic” value (P. aeruginosa PA14; [4]) of the same compound?
Its value is 32.

What about the FICI (P. aeruginosa PAK; [5]) of the same compound?
Its FICI is 0.188.

And the “MICa: MIC of the antibiotic” value (P. aeruginosa PAK; [3])?
The value was 128.

What about the “MICac: MIC of the antibiotic” value (P. aeruginosa PAK; [4]) of the same compound?
Its value is 16.
